Results: patent US20190307783A1, “USE OF ANTIVIRALS TO INHIBIT PROTOZOAN VIRUSES” (priority 2016, published 2019)
Like-named read-outs stand apart in the source and are kept apart here.

Experiments:
[1] = tested on: L. guyanensis (LgyLRV1+); test: Drug-inhibition test: growth of LgyLRV1+ parasites; format: cell-based, Leishmania guyanensis; conditions: for activity at 100 µM / activity at 1 µM: Leishmania guyanensis, 48 h, read-out: Percent control (density); for Population doubling time: untreated ˜7.7 hours
Method: These compounds were examined for their ability to inhibit the growth of LgyLRV1^+ and virus levels by LRV1 capsid flow cytometry.
Most studies were performed using luciferase-expressing transfectants of L. guyanensis (MHOM/BR/78/M4147) described previously [LRV1^+ LgyM4147/SSU:IR2SAT-LUC(b)c3 and LRV^−LgyM4147/pX63HYG/SSU:IR2SAT-LUC(b)c4] (54); these lines are termed LgyLRV1^+ and LgyLRV1^−, respectively. Two strains of LRV1^+L. braziliensis were examined: LEM2780 (MHOM/BO/90/CS) and LEM3874 (MHOM/BO/99/IMT252 no. 3) (12). Parasites were grown in Schneider's media (Sigma Aldrich, St. Louis, Mo., USA) prepared according to the supplier's instructions with pH adjusted to 6.5 and supplemented with 0.76 mM hemin, 2 μg/mL biopterin, 50 U/mL penicillin, 50 μg/mL streptomycin, and 10% (vol/vol) heat-inactivated FBS. Cell concentrations were determined using a Coulter Counter ([…], Indianapolis, Ind., USA).
(§1) Parasites were inoculated at 2×10^5 cells/mL into Schneider's media lacking supplemental adenine.

[2] = tested on: LRV1 (LgyLRV1 capsid levels); test: organism not typed; conditions: for activity at 100 µM / activity at 1 µM: 48 h, read-out: Percent control (LRV1 capsid); for Effect on LRV1 (capsid) levels, in words: screen at 100 μM or maximum concentration permitted by solubility
Source text: Because LRV1 (like most Totiviridae) is not shed from the cell (33, 34), we developed a flow cytometric assay to measure intracellular LRV1 capsid levels on a per cell basis. To detect LRV1 we used binding to a rabbit anti-LgyLRV1 capsid antiserum (35) followed by detection with Alexa Fluor488-conjugated goat anti-rabbit IgG.
as §1
For capsid flow cytometry, 10^7 cells were fixed at room temperature using 2% (wt/vol) paraformaldehyde (Thermo Fisher Scientific) in PBS for 2 minutes. They were then incubated in blocking buffer [10% (vol/vol) normal goat serum (Vector Laboratories, Burlingame, Calif., USA) and 0.2% TRITON X-100 in PBS] for 30 minutes at room temperature. Anti-LgyLRV1 capsid antibody (35) was added (1:20,000 dilution) and incubated at room temperature for 1 hour. After two washes with PBS, cells were resuspended in 200 μL PBS with Alexa Fluor488-labeled goat anti-rabbit IgG (Alexafluor, Invitrogen; 1:1,000; or Thermo Fisher Scientific; 1:2,000 dilution), and incubated 1 hour at room temperature. After two additional washes with PBS, cells were subjected to flow cytometry, gating for single cells using forward and side scatter and the data analyzed using […] software (BD Bioscience, San Jose, Calif., USA).

[3] = LgyLRV1+, tested at 100 μM, growth after 2 days
[4] = LgyLRV1+, tested at 100 μM, 2 days
[5] = LgyLRV1+, tested at 1 μM, growth after 2 days
[6] = LgyLRV1+, tested at 1 μM, 2 days
[7] = LgyLRV1+, tested at 50 μM, growth after 2 days

Row | Compound | activity at 100 µM [1, 3] [%] | Density (cells/mL) [1, 3] [cells/mL] | activity at 100 µM [2] [%] | LRV1 capsid (geometric mean FU) [2, 4] [FU] | other results
1 | O=c1[nH]cc(F)c(=O)[nH]1 [5-Fluorouracil] | 5 | 9.05E+5 | 193 |  | LRV1 capsid (geometric mean FU) [2]: 512 FU
2 | [H]/N=C(/N)NS(=O)(=O)c1ccc(N)cc1 [Sulfaguanidine] | 68 | 1.15E+7 | 98 | 260 | 
3 | C[C@H]1O[C@@H](n2cc(F)c(=O)[nH]c2=O)[C@H](O)[C@@H]1O [5-Fluoro-5′-deoxyuridine] | 28 | 4.71E+6 | 88 | 234 | 
4 | C=C1[C@H](CO)[C@@H](O)C[C@@H]1n1cnc2c(=O)[nH]c(N)nc21 [Entecavir] | 105 | 1.77E+7 | 45 | 119 | 
5 | C[C@@H]1C[C@@H]([C@H](O)CC2CC(=O)NC(=O)C2)C(=O)[C@@H](C)C1 [CHX, cycloheximide] |  |  |  |  | Population doubling time ([1]; L. guyanensis at 10 nM): 11.2 h; Population doubling time ([1]; L. guyanensis at 100 nM): 44.7 h; LRV1 capsid levels under growth-inhibiting agent, in words ([2]; LgyLRV1+, 48-hour propagation in increasing concentrations): unaffected
6 | COc1c(C)c2c(c(O)c1C/C=C(\C)CCC(=O)O)C(=O)OC2 [Mycophenolic acid] |  |  |  |  | activity at 1 µM [1, 5]: 3%; Density (cells/mL) [1, 5]: 4.55E+5 cells/mL; activity at 1 µM [2]: 90%; LRV1 capsid (geometric mean FU) [2, 6]: 238 FU
7 | C#C[C@@]1(O)[C@H](O)[C@@H](CO)O[C@H]1n1ccc2c(N)ncnc21 [NITD008, 7-(2-Ethynyl-β-D-ribofuranosyl)-7H-pyrrolo[2,3-d]pyrimidine-4-amine] |  |  |  |  | activity at 1 µM [1, 5]: 61%; Density (cells/mL) [1, 5]: 1.02E+7 cells/mL; activity at 1 µM [2]: 37%; LRV1 capsid (geometric mean FU) [2, 6]: 98 FU; Effect on LRV1 (capsid) levels, in words ([2]; 2 days): little effect on LRV1
8 | CC(C)C[C@H](NC(=O)[C@H]1O[C@@H]1C(=O)O)C(=O)NCCCCN=C(N)N [e64, E-64] |  |  |  |  | Density (cells/mL) [1, 7]: 1.80E+07 cells/mL; Percent control (density) [1, 7]: 107 Percent control; Effect on L. guyanensis growth, in words ([1]; screen at 100 μM or maximum concentration permitted by solubility, 2 days): no effects; LRV1 capsid (geometric mean FU) [2]: 153 FU; Percent control (LRV1 capsid) ([2]; LgyLRV1+, tested at 50 μM, 2 days): 58 Percent control; Effect on LRV1 (capsid) levels, in words ([2]; 2 days): only minimal effects
9 | Oc1ncnc2[nH]ncc12 [Allopurinol] | 2 | 4.06E+5 | 34 | 90 | Inhibition of L. guyanensis growth ([1]; highest concentration tested, 48-hour propagation, growth rate (FIG. 18A)): 30%; Inhibition of LRV1 capsid levels ([2]; highest concentration tested, 48-hour propagation (FIG. 18A)): 60%
10 | Nc1ncnc2c(CN3C[C@H](CO)[C@@H](O)C3)c[nH]c12 [DADMe-Immucillin A] |  |  |  |  | Inhibition of LRV1 levels, in words ([2]; concentrations up to 100 μM, data not shown): no inhibition of LRV1 levels
11 | Nc1ccn([C@@H]2O[C@H](CO)[C@@H](O)[C@H]2F)c(=O)n1 [2′-Fluoro-2′-deoxycytidine] | 132 | 2.21E+7 | 87 | 230 | 
12 | CN(C)c1ncnc2c1ncn2[C@@H]1O[C@H](CO)[C@@H](O)[C@H]1O [Chembridge 5790592, N,N-dimethyl adenosine] | 1 | 1.00E+5 | 108 |  | LRV1 capsid (geometric mean FU) [2]: 287 FU
13 | Nc1ccn([C@@H]2CS[C@H](CO)O2)c(=O)n1 [Lamivudine] | 55 | 9.20E+6 |  |  | 
14 | O=C(O)P(=O)(O)O [Foscarnet, Phosphonoformic acid] | 56 | 9.50E+6 | 61 | 162 | Effect on LRV1 (capsid) levels, in words ([2]; 2 days): not significantly affected
15 | Nc1nc2c(ncn2[C@@H]2O[C@H](CO)[C@@H](O)[C@H]2F)c(=O)[nH]1 [2′-fluoro-2′-deoxyguanosine, 2′-Fluoro-2′-deoxyguanosine] | 100 | 1.68E+7 | 123 | 326 | 
